Measurements from BindingDB's records for doi:10.1021/jm00099a027 (Smithkline Beecham Pharmaceuticals, 1992).
Bridge positions count the residues as written; N and C are the ends. Square brackets hold non-standard residues; d marks the D form. Peptide text beside a SMILES is read from it. NMeR = CN[C@@H](CCCNC(=N)N)C(=O)O

Experiment: Inhibition of ADP-induced platelet aggregation in canine platelet-rich plasma

SMILES | IC50
CC(=O)N(C)C(CCCNC(=N)N)C(=O)NCC1=CC(CC(=O)O)C(=O)N(c2ccccc2)CC1 (configuration not stated) | 0.72 µM
CC(=O)N[C@H]1CSSC[C@@H](C(N)=O)NC(=O)[C@H](CC(=O)O)NC(=O)CNC(=O)[C@H](CCCN=C(N)N)N(C)C1=O [SKF-106760] (Ac-C[NMeR]GDC-NH2; disulfide 1-5) | 0.36 µM
